Laboratory results as given in patent US4499091A, “1-Amino (or substituted amino)-1,4-dihydro-4-oxo-6-fluoro-7-heterylquinoline-3-carboxylic acids and their use as antibacterial agents” (Sterling Drug Inc., priority 1983, dated 1985).
≈ marks a conversion by molar mass, not a printed value. Like-named read-outs stand apart in the source and are kept apart here.

Key:
[1] = tested on: Klebsiella pneumoniae 39645; assay: in vivo antibacterial activity in mice infected with K. pneumoniae (PD50); design: species or system mouse (female) infected with Klebsiella pneumoniae; conditions: Klebsiella pneumoniae, 39645, sc, 336 h, read-out: Protective Dose (PD50)
Description: (§1) The in vivo antibacterial activity of the compounds of the invention was determined in female mice, 18-20 grams each, by the following procedure:
(§2) Aqueous solutions of the compounds to be tested were prepared by dissolving the free acid form in dilute sodium hydroxide and diluting the solution with distilled water to be desired volume.
(§3) Cultures of Escherichia coli Vogel prepared in brain heart infusion broth, cultures of Klebsiella pneumoniae 39645 grown in tryptose phosphate broth with 5% rabbit serum diluted in the same broth and cultures of Pseudomonas aeruginosa MGH-2 grown on brain heart infusion agar and suspended in physiological saline, were used to infect the mice as follows:
K. pneumoniae: mice were inoculated intramuscularly in the right hind leg with 0.2 ml of the bacterial test inoculum (2.05×10^4 cells/ml).
Mice infected with K. pneumoniae were medicated at the following times: seventeen hours and one hour preinfection, six hours postinfection and twice a day for the next three days. The test compound was administered by both subcutaneous (0.2 ml) and oral (0.5 ml) routes. Deaths were recorded daily for fourteen days.
(§4) Groups of ten animals each for four or five dose levels were thus treated and the number of survivors in each group recorded. The fifty percent protective dose values (PD50) were then calculated.

[2] = tested on: Streptococcus pyogenes C203; assay: in vitro antibacterial activity, serial dilution (MIC); assay type: cell-based; conditions: 18-20 hours static incubation, read-out: Minimal Inhibitory Concentration (MIC)
Description: (§5) The in vitro antibacterial activity of the compounds of the invention was determined by conventional serial dilution procedures. Bacterial cultures were grown in tryptose phosphate broth or brain heart infusion broth (containing heat-inactivated normal horse serum for tests with S. pyogenes) overnight at 37° C. and subsequently diluted in double strength broth to provide bacterial inocula of about 2×10^5 cells/ml. Aqueous solutions of the compounds of the invention were prepared by dissolving the free acid form in 0.5N sodium hydroxide. The solutions were diluted with sterile distilled water to 1000 mcg/ml of compound in terms of the free acid. Serial two-fold dilutions of the compound stock solutions were prepared in water and 0.5 ml of each dilution was transferred to sets of tubes, one set for each bacterial inoculum.

Proteus mirabilis MGH-1 = assay: as above; assay type: cell-based; conditions: MGH1, 18-20 hours static incubation, read-out: Minimal Inhibitory Concentration (MIC)
Description: as §5

[3] = tested on: Staphylococcus aureus Smith; assay: as above; assay type: cell-based; conditions: 18-20 hours static incubation, read-out: Minimal Inhibitory Concentration (MIC)
Description: as §5

[4] = tested on: Pseudomonas aeruginosa MGH-2; assay: as above; assay type: cell-based; conditions: MGH2, 18-20 hours static incubation, read-out: Minimal Inhibitory Concentration (MIC)
Description: as §5

[5] = tested on: Klebsiella pneumoniae 39645; assay: as above; assay type: cell-based; conditions: 18-20 hours static incubation, read-out: Minimal Inhibitory Concentration (MIC)
Description: as §5

Escherichia coli Vogel [6] = assay: as above; assay type: cell-based; conditions: 18-20 hours static incubation, read-out: Minimal Inhibitory Concentration (MIC)
Description: as §5

Escherichia coli Vogel [7] = assay: in vivo antibacterial activity in mice infected with E. coli (PD50); design: species or system mouse (female) infected with Escherichia coli; conditions: sc, 168 h, read-out: Protective Dose (PD50)
Description: as §1, §2, §3
Mice infected with E. coli were medicated once (0.5 ml) one-half hour post infection, the test compound being administered by either the subcutaneous (s.c.) or oral (p.o.) route. Deaths were recorded daily for seven days.
as §4

Proteus vulgaris 9920 = assay: in vitro antibacterial activity, serial dilution (MIC); assay type: cell-based; conditions: 18-20 hours static incubation, read-out: Minimal Inhibitory Concentration (MIC)
Description: as §5

[8] = tested on: Pseudomonas aeruginosa MGH-2; assay: in vivo antibacterial activity in mice infected with P. aeruginosa (PD50); design: species or system mouse (female) infected with Pseudomonas aeruginosa; conditions: MGH2, sc, 168 h, read-out: Protective Dose (PD50)
Description: as §1, §2, §3
Deaths were recorded daily for seven days.
as §4

[9] = mouse, K. pneumoniae, s.c., pre- and postinfection, 14 days
[10] = mouse, E. coli, s.c., once one-half hour post infection, 7 days

Row | Structure (SMILES) | ED50 [1, 9] [mg/kg] | MIC [2] [µg/mL] | MIC (Proteus mirabilis MGH-1) [µg/mL] | MIC [3] [µg/mL] | MIC [4] [µg/mL] | MIC [5] [µg/mL] | MIC (Escherichia coli Vogel [6]) [µg/mL] | ED50 (Escherichia coli Vogel [7]; [10]) [mg/kg] | ED50 [1] [mg/kg] | MIC (Proteus vulgaris 9920) [µg/mL] | ED50 (Escherichia coli Vogel [7]) [mg/kg] | ED50 [8] [mg/kg]
1 | CNn1cc(C(=O)O)c(=O)c2cc(F)c(N3CCC(O)C3)cc21 (centres unmarked) [Example 22, 6-Fluoro-1,4-dihydro-7-(3-hydroxy-1-pyrrolidinyl)-1-methylamino-4-oxo-3-quinolinecarboxylic acid] | 118 | 16 (≈ 49.8 µM) | 1 (≈ 3.11 µM) | 1 (≈ 3.11 µM) | 4 (≈ 12.4 µM) | 4 (≈ 12.4 µM) | 1 (≈ 3.11 µM) | 10.4 |  |  |  | 
2 | CNn1cc(C(=O)O)c(=O)c2cc(F)c(N3CCNCC3)cc21 [Example 4, 6-Fluoro-1,4-dihydro-1-methylamino-4-oxo-7-(1-piperazinyl)-3-quinolinecarboxylic acid] |  |  | 0.5 (≈ 1.56 µM) | 2 (≈ 6.24 µM) | 1 (≈ 3.12 µM) | 1 (≈ 3.12 µM) | 1 (≈ 3.12 µM) |  | 6.25 | 0.25 (≈ 0.78 µM) | 0.32 | 0.46
3 | CCCNn1cc(C(=O)O)c(=O)c2cc(F)c(N3CCN(C)CC3)cc21 [Example 6, 6-Fluoro-1,4-dihydro-7-(4-methyl-1-piperazinyl)-4-oxo-1-propylamino-3-quinolinecarboxylic acid] | > 200 | 125 (≈ 345 µM) | 31.3 (≈ 86.4 µM) | 15.6 (≈ 43 µM) | 31.3 (≈ 86.4 µM) | 2 (≈ 5.52 µM) | 2 (≈ 5.52 µM) | 32 |  | 2 (≈ 5.52 µM) |  | 
4 | CNn1cc(C(=O)O)c(=O)c2cc(F)c(N3CCSCC3)cc21 [Example 21, 6-Fluoro-1,4-dihydro-1-methylamino-4-oxo-7-(4-thiomorpholinyl)-3-quinolinecarboxylic acid] |  | > 8 | 2 (≈ 5.93 µM) | 0.5 (≈ 1.48 µM) | 4 (≈ 11.9 µM) | 0.5 (≈ 1.48 µM) | 0.5 (≈ 1.48 µM) | > 200 |  |  |  | 
5 | CNn1cc(C(=O)O)c(=O)c2cc(F)c(N3CCN(C(C)C)CC3)cc21 [Example 10, 6-Fluoro-1,4-dihydro-1-methylamino-7-[4-(1-methylethyl)-1-piperazinyl]-4-oxo-3-quinolinecarboxylic acid] | 50 | 4 (≈ 11 µM) | 4 (≈ 11 µM) | 2 (≈ 5.52 µM) | 8 (≈ 22.1 µM) | 0.5 (≈ 1.38 µM) | 0.5 (≈ 1.38 µM) | 2.7 |  |  |  | 
6 | CCNn1cc(C(=O)O)c(=O)c2cc(F)c(Cl)cc21 [7-Chloro-1-ethylamino-6-fluoro-1,4-dihydro-4-oxo-3-quinolinecarboxylic acid] |  | 31.3 (≈ 110 µM) | 3.9 (≈ 13.7 µM) | 15.6 (≈ 54.8 µM) | 31.3 (≈ 110 µM) | 3.9 (≈ 13.7 µM) | 1.95 (≈ 6.85 µM) |  |  | 0.25 (≈ 0.878 µM) |  | 
7 | CNn1cc(C(=O)O)c(=O)c2cc(F)c(N3CCCN(C)CC3)cc21 [Example 20, 6-Fluoro-7-(hexahydro-4-methyl-1H-1,4-diazapin-1-yl)-1,4-dihydro-1-methylamino-4-oxo-3-quinolinecarboxylic acid] | 33 | 32 (≈ 91.9 µM) | 2 (≈ 5.74 µM) | 4 (≈ 11.5 µM) | 4 (≈ 11.5 µM) | 4 (≈ 11.5 µM) | 2 (≈ 5.74 µM) | 3.6 |  |  |  | 
